This is an account of results in article PMC3422278 (2012).

The test system of experiment [1] is Pu27 (DNA, G4) TGGGGAGGGTGGGGAGGGTGGGGAAGG
The experiment is described as follows: PCR stop assay (Taq polymerase). The note with it: 1x PCR buffer, extension 72 °C, indirect.

In experiment [2] the test system is Pu24I (DNA, G4, inosine at 10 (G-to-I)) TGAGGGTGGGGAGGGTGGGGAAGG
Briefly: 1H NMR titration (imino proton shifts). The settings on record: 150 mM KCl, 25 mM KH2PO4; 1 mM EDTA, pH 7.0, 298 K, 90% H2O/10% D2O; 1.0 mM DNA.

Consider `COc1cc(NC(=O)Nc2nc3c(s2)C[C@]2(C)CC[C@@H]4[C@H](OC(=O)[C@H]4C)[C@H]2[C@@H]3C)cc(OC)c1`, for which the binding entry in experiment [1] (inhibition only at higher concentration (500 µM)) is reported as “weak”.
Take `C[C@@H]1C(=O)O[C@H]2[C@H]1CC[C@@]1(C)Cc3sc(NC(=O)Nc4ccc(Oc5ccccc5)cc4)nc3[C@@H](C)[C@H]21`: the binding entry is “yes” in experiment [2] and “weak” in experiment [1] (10 µM oligomers, complementary primer, effect at 125 µM, 250 µM).
